Reference: patent publication EP0326329B1, “Quinazoline derivatives useful as insecticides” (Dow AgroSciences LLC, priority 1988, dated 1989)

Assays:
Assay type in all cases: in vivo
[1] = tested on: southern armyworm (Spodopetra eridania Cramer); assay: Mite/insect screen, sprayed squash leaves (SAW); conditions: percent mortality; for mortality at 200 ppm / mortality at 400 ppm: Spodoptera eridania, read-out: SAW RESULTS %
Description: (§1) The compounds of Examples 1-203 were tested for miticidal and insecticidal activity in the following mite/insect screen.
(§2) Each test compound was formulated by dissolving the compound in acetone/alcohol (50:50) mixture containing 23 g of "TOXIMUL R" (sulfonate/nonionic emulsifier blend) and 13 g of "TOXIMUL S" (sulfonate/nonionic emulsifier blend) per liter. These mixtures were then diluted with water to give the indicated concentrations.
(§3) Other plants in the same treatment pot were left uninfested. The leaves were then sprayed with 5 ml of test solution using a DeVilbiss atomizing sprayer at 10 psi. Both surfaces of the leaves were covered until runoff, and then allowed to dry for one hour. Two uninfested leaves were then excised and placed into a Petri dish containing larval southern armyworm (Spodopetra eridania Cramer).
(§4) After standard exposure periods, percent mortality and phytotoxicity were evaluated. […]

[2] = tested on: melon aphids (Aphis gossypii Glover); assay: Mite/insect screen, sprayed squash cotyledons (MA); conditions: percent mortality; for mortality at 200 ppm / mortality at 400 ppm: Aphis gossypii, read-out: MA RESULTS %
Description: as §1, §2, §3, §4

[3] = tested on: Puccinia recondita tritici (leaf rust); assay: Greenhouse Test 1, foliar spray fungicide screen (LEAF RUST), host wheat; conditions: disease control rating, 400 ppm (+++ at 100 ppm)
[4] = tested on: Twospotted spider mites (Tetranychus urticae Koch); assay: Mite/insect screen, sprayed squash cotyledons (SM); conditions: percent mortality; for mortality at 400 ppm / mortality at 200 ppm: Tetranychus urticae, read-out: SM RESULTS %
Description: as §1, §2, §3, §4

[5] = tested on: Pseudoperonospora cubensis (downy mildew); assay: Greenhouse Test 1, foliar spray fungicide screen (DOWN MDEW), host squash; conditions: disease control rating, 400 ppm (+++ at 100 ppm)
[6] = tested on: Erysiphe graminis tritici (powdery mildew); assay: Greenhouse Test 1, foliar spray fungicide screen (POWD MDEW), host wheat; conditions: disease control rating, 400 ppm (+++ at 100 ppm)
[7] = tested on: Botrytis cinerea (gray mold); assay: Greenhouse Test 1, foliar spray fungicide screen (GRAY MOLD), host grape berries; conditions: disease control rating, 400 ppm (+++ at 100 ppm)
[8] = tested on: Southern corn rootworm (Diabrotica undecimpuctata howardi Barber); assay: Mite/insect screen, soil treatment (CRW); conditions: percent mortality, soil treatment; for mortality at 12 ppm / mortality at 24 ppm: Diabrotica, read-out: CRW RESULTS %
Description: as §1, §2
Activity on Southern corn rootworm (Diabrotica undecimpuctata howardi Barber) was evaluated by adding two ml of tap water, a presoaked corn seed, and 15 g of dry sandy soil to a one ounce plastic container. The soil was treated with 1 mL of test solution containing a pre-determined concentration of test compound. After six to 12 hours of drying, five 2-3 instar corn rootworm larvae were added to the individual cups, which were then capped and held at 23°C.
as §4

[9] = tested on: Pyricularia oryzae (rice blast); conditions: disease control rating, foliar spray, host rice; 400 ppm (+++ at 100 ppm)

SMILES	mortality at 200 ppm ([1]; spray rate 200 ppm) [%]	mortality at 400 ppm ([1]; spray rate 400 ppm) [%]	mortality at 200 ppm ([2]; spray rate 200 ppm) [%]	mortality at 400 ppm ([2]; spray rate 400 ppm) [%]	LEAF RUST [3]	mortality at 400 ppm ([4]; spray rate 400 ppm) [%]	DOWN MDEW [5]	POWD MDEW [6]	GRAY MOLD [7]	mortality at 12 ppm ([8]; CRW rate 12.00 ppm) [%]	mortality at 24 ppm ([8]; CRW rate 24.00 ppm) [%]	RICE BLAST [9]	mortality at 200 ppm ([4]; spray rate 200 ppm) [%]	other results
Fc1ccc(-c2ccc(CCOc3ncnc4ccccc34)cc2)cc1 [Example 144, 4-[2-(4'-fluoro-1,1'-biphenyl)-4-ylethoxy]quinazoline]	40	0	60	100	+++ (+++ = 90-100% control at 100 ppm)	100	+++ (+++ = 90-100% control at 100 ppm)	+++ (+++ = 90-100% control at 100 ppm)	- (- = 0-19% control at 400 ppm)	100	40	+++ (+++ = 90-100% control at 100 ppm)		
CC(C)(C)c1ccc(CCCOc2ncnc3c(F)cccc23)cc1 [Example 149, 8-fluoro-4-[3-[4-(1,1-dimethylethyl)phenyl]propoxy]quinazoline]	0	0	0	0	- (- = 0-19% control at 400 ppm)	0	- (- = 0-19% control at 400 ppm)	++ (++ = 90-100% control at 400 ppm)	- (- = 0-19% control at 400 ppm)	0	0	- (- = 0-19% control at 400 ppm)	0	
Fc1cccc2c(OCCc3ccc(-c4ccccc4)cc3)ncnc12 [Example 93, 8-fluoro-4-[2-(1,1'-biphenyl)-4-ylethoxy]quinazoline]					+++ (+++ = 90-100% control at 100 ppm)		+++ (+++ = 90-100% control at 100 ppm)	+++ (+++ = 90-100% control at 100 ppm)	- (- = 0-19% control at 400 ppm)			+++ (+++ = 90-100% control at 100 ppm)		SAW RESULTS % ([1]; spray rate 200 ppm): 100%; SAW RESULTS % ([1]; spray rate 400 ppm): 100%; MA RESULTS % ([2]; spray rate 200 ppm): 80%; MA RESULTS % ([2]; spray rate 400 ppm): 0%; SM RESULTS % ([4]; spray rate 200 ppm): 80%; SM RESULTS % ([4]; spray rate 400 ppm): 0%; CRW RESULTS % ([8]; CRW rate 12.00 ppm): 0%; CRW RESULTS % ([8]; CRW rate 24.00 ppm): 0%
Clc1ccc2ncnc(NCCc3ccc(-c4ccccc4)cc3)c2c1 [Example 90, 6-chloro-N-[2-(1,1'-biphenyl)-4-ylethyl]-4-quinazolinamine]	0	100	80	0	+ (+ = 20-89% control at 400 ppm)	0	+++ (+++ = 90-100% control at 100 ppm)	+ (+ = 20-89% control at 400 ppm)	- (- = 0-19% control at 400 ppm)	0	0	+ (+ = 20-89% control at 400 ppm)	100	
FC(F)(F)c1cccc(C(F)(F)F)c1CCOc1ncnc2ccccc12 [Example 145, 4-[2-[2,6-bis(trifluoromethyl)phenyl]ethoxy]quinazoline]	0	0	80	80	+ (+ = 20-89% control at 400 ppm)	0	++ (++ = 90-100% control at 400 ppm)	+ (+ = 20-89% control at 400 ppm)	- (- = 0-19% control at 400 ppm)	0	0	+++ (+++ = 90-100% control at 100 ppm)	80	
CC(C)c1cccc(C(C)C)c1OCCOc1ncnc2ccccc12 [Example 181, 4-[2-[2,6-bis(i-propyl)phenoxy]ethoxy]quinazoline]	0	0	60	50	- (- = 0-19% control at 400 ppm)	40	+ (+ = 20-89% control at 400 ppm)	++ (++ = 90-100% control at 400 ppm)	- (- = 0-19% control at 400 ppm)	0	0	+ (+ = 20-89% control at 400 ppm)	0	
FC(F)(F)c1ccccc1CCOc1ncnc2ccccc12 [Example 47, 4-[2-[2-(trifluoromethyl)phenyl]ethoxy]quinazoline]		0		0	+++ (+++ = 90-100% control at 100 ppm)	0	+++ (+++ = 90-100% control at 100 ppm)	+++ (+++ = 90-100% control at 100 ppm)	- (- = 0-19% control at 400 ppm)		0	+++ (+++ = 90-100% control at 100 ppm)		
CC(C)(C)c1ccc(CCOc2ncnc3c(F)cccc23)cc1 [Example 94, 8-fluoro-4-[2-[4-(t-butyl)phenyl]ethoxy]quinazoline]	100	100	80	0	+++ (+++ = 90-100% control at 100 ppm)	0	+++ (+++ = 90-100% control at 100 ppm)	+++ (+++ = 90-100% control at 100 ppm)	- (- = 0-19% control at 400 ppm)	0	0	+++ (+++ = 90-100% control at 100 ppm)	100	
COc1ccccc1CCOc1ncnc2c(F)cccc12 [Example 131, 8-fluoro-4-[2-(2-methoxyphenyl)ethoxy]quinazoline]		0		0	+++ (+++ = 90-100% control at 100 ppm)	0	+++ (+++ = 90-100% control at 100 ppm)	+++ (+++ = 90-100% control at 100 ppm)	- (- = 0-19% control at 400 ppm)		0	+++ (+++ = 90-100% control at 100 ppm)		
c1ccc(CCCCOc2ncnc3ccccc23)cc1 [Example 42, 4-(4-phenylbutoxy)quinazoline]	0	50	100	100	+++ (+++ = 90-100% control at 100 ppm)	100	+++ (+++ = 90-100% control at 100 ppm)	+++ (+++ = 90-100% control at 100 ppm)	- (- = 0-19% control at 400 ppm)	0	0	+++ (+++ = 90-100% control at 100 ppm)	100	
CC(C)C(COc1ncnc2ccccc12)c1ccccc1 (stereo not drawn) [Example 165, 4-(3-methyl-2-phenylbutoxy)quinazoline]	0	0	50	80	++ (++ = 90-100% control at 400 ppm)	0	++ (++ = 90-100% control at 400 ppm)	++ (++ = 90-100% control at 400 ppm)	- (- = 0-19% control at 400 ppm)	0	0	++ (++ = 90-100% control at 400 ppm)	0	
FC(F)(F)c1cc(CCOc2ncnc3ccccc23)cc(C(F)(F)F)c1 [Example 128, 4-[2-[3,5-di(trifluoromethyl)phenyl]ethoxy]quinazoline]	0	0	0	0	+ (+ = 20-89% control at 400 ppm)	0	+ (+ = 20-89% control at 400 ppm)	++ (++ = 90-100% control at 400 ppm)	- (- = 0-19% control at 400 ppm)	0	0	+ (+ = 20-89% control at 400 ppm)	0	
